ChEMBL document CHEMBL4706477, “Synthesis and Biological Evaluation of Calothrixins B and their Deoxygenated Analogues” (J Med Chem, 2018)
Calls of active or inactive are those of the source. The rule behind the calls is not given here.

Assays:
Calf thymus DNA [1] = assay: Binding affinity to calf thymus DNA assessed as hyperchromic effect measured at 299 nm at 3*10^-5 mol/L by double beam UV-Vis spectroscopic analysis; assay type: nucleic-acid assay; details: Bos taurus
A549 = assay: Antiproliferative activity against human A549 cells assessed as reduction in cell viability incubated for 48 hrs by sulphorhodamine B assay; assay type: functional
NCI-H460 [2] = assay: Induction of DNA damage in human NCI-H460 cells at 5 uM incubated for 48 hrs by alkaline Comet assay relative to control; assay type: functional, cell-based
[3] = biological target: T1, DNA topoisomerase 1 (Homo sapiens) (UniProt P11387); assay: Inhibition of human topoisomerase 1 assessed as induction of negative supercoiled DNA using relaxed pBlue-Script KS(+) plasmid DNA as substrate measured after 15 mins by agarose gel electrophoresis analysis; details: dose 60-100 µM
T1 sequence (whole entry): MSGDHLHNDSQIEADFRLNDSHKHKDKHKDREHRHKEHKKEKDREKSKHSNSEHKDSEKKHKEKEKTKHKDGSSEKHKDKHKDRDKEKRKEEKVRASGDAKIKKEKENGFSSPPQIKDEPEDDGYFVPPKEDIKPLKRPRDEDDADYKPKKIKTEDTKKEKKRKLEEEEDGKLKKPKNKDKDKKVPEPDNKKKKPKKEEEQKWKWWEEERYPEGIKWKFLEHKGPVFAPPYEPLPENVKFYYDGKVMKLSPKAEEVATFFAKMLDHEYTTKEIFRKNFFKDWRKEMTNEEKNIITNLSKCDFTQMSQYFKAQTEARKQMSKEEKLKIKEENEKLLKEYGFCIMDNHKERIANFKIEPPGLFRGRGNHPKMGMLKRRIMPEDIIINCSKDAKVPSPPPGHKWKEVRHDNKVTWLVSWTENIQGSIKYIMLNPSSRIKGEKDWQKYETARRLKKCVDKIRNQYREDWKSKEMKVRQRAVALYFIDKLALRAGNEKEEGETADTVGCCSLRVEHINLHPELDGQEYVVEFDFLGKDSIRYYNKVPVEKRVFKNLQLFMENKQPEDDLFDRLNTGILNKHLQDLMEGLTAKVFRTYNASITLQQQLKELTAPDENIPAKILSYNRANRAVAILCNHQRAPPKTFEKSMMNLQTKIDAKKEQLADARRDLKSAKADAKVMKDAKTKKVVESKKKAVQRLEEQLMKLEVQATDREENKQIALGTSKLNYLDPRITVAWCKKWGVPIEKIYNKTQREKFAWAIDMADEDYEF

[4] = biological target: T2, DNA topoisomerase 2-alpha (Homo sapiens, UniProt P11388); assay: Inhibition of recombinant human topoisomerase 2 assessed as decrease in relaxation of supercoiled pBlue-Script KS(+) plasmid DNA at 200 uM incubated for 30 mins by ethidium bromide staining based gel electrophoresis method
T2 sequence (P11388 whole entry): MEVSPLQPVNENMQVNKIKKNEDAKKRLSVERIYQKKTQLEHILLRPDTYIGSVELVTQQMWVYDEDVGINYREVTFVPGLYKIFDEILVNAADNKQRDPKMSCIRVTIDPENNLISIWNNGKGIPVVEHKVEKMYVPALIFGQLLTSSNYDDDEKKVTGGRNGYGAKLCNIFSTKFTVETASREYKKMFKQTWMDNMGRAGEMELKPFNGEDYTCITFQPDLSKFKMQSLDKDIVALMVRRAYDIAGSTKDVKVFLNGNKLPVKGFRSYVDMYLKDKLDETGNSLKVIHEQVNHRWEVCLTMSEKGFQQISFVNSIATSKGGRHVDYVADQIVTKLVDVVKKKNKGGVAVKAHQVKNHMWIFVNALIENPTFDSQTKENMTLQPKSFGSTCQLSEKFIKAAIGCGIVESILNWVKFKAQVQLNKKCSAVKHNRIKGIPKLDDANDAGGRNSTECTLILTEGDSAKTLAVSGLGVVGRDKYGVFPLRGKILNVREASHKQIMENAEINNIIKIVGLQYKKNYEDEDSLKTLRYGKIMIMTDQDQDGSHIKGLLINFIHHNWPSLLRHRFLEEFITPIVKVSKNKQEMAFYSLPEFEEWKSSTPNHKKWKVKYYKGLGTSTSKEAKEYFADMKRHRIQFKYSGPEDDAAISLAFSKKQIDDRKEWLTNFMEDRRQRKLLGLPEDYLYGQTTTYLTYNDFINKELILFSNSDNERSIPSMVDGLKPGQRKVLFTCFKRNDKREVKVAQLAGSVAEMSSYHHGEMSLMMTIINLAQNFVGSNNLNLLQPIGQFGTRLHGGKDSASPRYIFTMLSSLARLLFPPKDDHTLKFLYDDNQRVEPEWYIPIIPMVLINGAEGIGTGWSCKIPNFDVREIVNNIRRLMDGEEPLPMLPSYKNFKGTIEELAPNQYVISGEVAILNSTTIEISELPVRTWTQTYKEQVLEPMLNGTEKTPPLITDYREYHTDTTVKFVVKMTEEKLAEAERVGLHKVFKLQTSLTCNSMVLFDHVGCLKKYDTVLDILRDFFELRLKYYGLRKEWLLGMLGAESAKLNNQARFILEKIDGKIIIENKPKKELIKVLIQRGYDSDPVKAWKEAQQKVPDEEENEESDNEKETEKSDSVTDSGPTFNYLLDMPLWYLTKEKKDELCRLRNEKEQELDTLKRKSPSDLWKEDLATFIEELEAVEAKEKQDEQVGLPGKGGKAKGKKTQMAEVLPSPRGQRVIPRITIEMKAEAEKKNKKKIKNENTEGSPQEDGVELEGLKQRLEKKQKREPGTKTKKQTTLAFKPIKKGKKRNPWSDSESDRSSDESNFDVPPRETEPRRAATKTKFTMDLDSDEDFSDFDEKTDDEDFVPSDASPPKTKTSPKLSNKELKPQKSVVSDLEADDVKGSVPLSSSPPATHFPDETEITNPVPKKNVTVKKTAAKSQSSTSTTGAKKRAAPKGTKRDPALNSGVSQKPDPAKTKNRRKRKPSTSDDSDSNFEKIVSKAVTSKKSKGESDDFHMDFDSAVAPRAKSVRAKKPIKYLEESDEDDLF

HCT-116 [5] = assay: Anticlonogenic activity against human HCT-116 cells assessed as inhibition of colony formation at 5 uM incubated for 48 hrs followed by compound washout with PBS and measured after 14 days by crystal violet staining based analysis; assay type: functional, cell-based
HEK293 = assay: Antiproliferative activity against human HEK293 cells assessed as reduction in cell viability incubated for 48 hrs by sulphorhodamine B assay; assay type: functional
Jurkat = assay: cells; details: Homo sapiens, 48 h
Description: Antiproliferative activity against human Jurkat cells assessed as reduction in cell viability incubated for 48 hrs by sulphorhodamine B assay

physchem [6] = details: octanol/buffer, pH 7.4
Description: Octanol/buffer distribution coefficient, log D of the compound at pH 7.4

HCT-116 [7] = assay: cells; details: Homo sapiens, HCT-116, 48 h
Description: Antiproliferative activity against human HCT-116 cells assessed as reduction in cell viability incubated for 48 hrs by sulphorhodamine B assay

[8] = biological target: T2, DNA topoisomerase 2-alpha; assay: Inhibition of recombinant human topoisomerase 2 assessed as decrease in relaxation of supercoiled pBlue-Script KS(+) plasmid DNA at 40 uM incubated for 30 mins by ethidium bromide staining based gel electrophoresis method relative to control
MDA-MB-231 = assay: cells; details: Homo sapiens, MDA-MB-231, 48 h
Description: Antiproliferative activity against human MDA-MB-231 cells assessed as reduction in cell viability incubated for 48 hrs by sulphorhodamine B assay

[9] = biological target: T2, DNA topoisomerase 2-alpha; assay: Inhibition of recombinant human topoisomerase 2 assessed as decrease in relaxation of supercoiled pBlue-Script KS(+) plasmid DNA incubated for 30 mins by ethidium bromide staining based gel electrophoresis method
Calf thymus DNA [10] = assay: Binding affinity to calf thymus DNA assessed as DNA intercalation by measuring positive CD band at 20*10^-6 mol/L by CD spectroscopy; assay type: nucleic-acid assay; details: Bos taurus
physchem [11] = details: octanol/water
Description: Octanol/water partition coefficient, log P of the compound

SiHa = assay: cells; details: Homo sapiens, 48 h
Description: Antiproliferative activity against human SiHa cells assessed as reduction in cell viability incubated for 48 hrs by sulphorhodamine B assay

MCF7 = assay: cells; details: Homo sapiens, MCF7, 48 h
Description: Antiproliferative activity against human MCF7 cells assessed as reduction in cell viability incubated for 48 hrs by sulphorhodamine B assay

HCT-116 [12] = assay: Induction of DNA damage in human HCT-116 cells assessed as tail length at 5 uM incubated for 48 hrs by alkaline Comet assay relative to control; assay type: functional, cell-based
[13] = biological target: T2, DNA topoisomerase 2-alpha; assay: Inhibition of human topoisomerase 2 assessed as inhibition of etoposide-induced DNA cleavage complex formation by measuring linear DNA formation at 30 to 50 uM incubated for 30 mins using pRYG DNA as substrate by agarose gel electrophoresis analysis; details: dose 30-50 µM
NCI-H460 [14] = assay: cells; details: Homo sapiens, NCI-H460, 48 h
Description: Antiproliferative activity against human NCI-H460 cells assessed as reduction in cell viability incubated for 48 hrs by sulphorhodamine B assay

NCI-H460 [15] = assay: Anticlonogenic activity against human NCI-H460 cells assessed as inhibition of colony formation at 5 uM incubated for 48 hrs followed by compound washout with PBS and measured after 14 days by crystal violet staining based analysis; assay type: functional, cell-based
HCT-116 [16] = assay: Induction of cell cycle arrest in human HCT-116 cells assessed as accumulation of cells at G2/M phase at 5 uM incubated for 48 hrs by propidium iodide staining based flow cytometry analysis; assay type: functional
U-251 = assay: cells; details: Homo sapiens, U-251, 48 h
Description: Antiproliferative activity against human U-251 cells assessed as reduction in cell viability incubated for 48 hrs by sulphorhodamine B assay

HeLa = assay: cells; details: Homo sapiens, 48 h
Description: Antiproliferative activity against human HeLa cells assessed as reduction in cell viability incubated for 48 hrs by sulphorhodamine B assay

HCT-116 [17] = assay: Induction of cell cycle arrest in human HCT-116 cells at 5 uM incubated for 20 hrs by propidium iodide staining based flow cytometry analysis; assay type: functional
Calf thymus DNA [18] = assay: Binding affinity to calf thymus DNA assessed as DNA intercalation by measuring positive CD band at 26.6*10^-6 mol/L by CD spectroscopy; assay type: nucleic-acid assay; details: Bos taurus

- Activity (Calf thymus DNA [1]): 30%
- GI50 (A549): > 4 µM
- Activity [3]: Dose-dependent effect
- inhibition [4]: 100%
- GI50 (Jurkat): 4 µM
- logD (physchem [6]): -1.55
- GI50 (HCT-116 [7]): 11.5 µM
- inhibition [8]: 97%
- GI50 (MDA-MB-231): > 4 µM
- IC50 [9]: 23.4 µM
- IC90 [9]: 41.5 µM
- inhibition [9]: Dose-dependent effect
- Activity (Calf thymus DNA [10]): Active
- logP (physchem [11]): -1.25
- GI50 (MCF7): > 4 µM
- inhibition [13]: Active
- GI50 (NCI-H460 [14]): 5.5 µM
- GI50 (U-251): > 4 µM
- GI50 (HeLa): 0.41 µM
- Activity (Calf thymus DNA [18]): Active
Structure (SMILES): c1ccc2c(c1)ncc1cc3c(cc12)[nH]c1ccccc13
- Activity (NCI-H460 [2]): inactive
- inhibition (HCT-116 [5]): inactive
- GI50 (HEK293): > 4 µM
- GI50 (SiHa): > 4 µM
- Activity (HCT-116 [12]): inactive
- inhibition (NCI-H460 [15]): inactive
- Activity (HCT-116 [16]): inactive
- Activity (HCT-116 [17]): inactive
